In patent US20080287398A1, “COLD MENTHOL RECEPTOR-1 ANTAGONISTS” (priority 2007, published 2008):
Where “and” joins values, the source holds several entries; their conditions need not be identical. Equal values may be shown once.

Experiments:
canine TRPM8 [1] = biological target: T1, canine TRPM8 (Canis lupus familiaris, UniProt Q1A7N1); test: In vitro canine TRPM8 functional assay (Ca2+-sensitive dye, FLIPR/FDSS, icilin activation); format: cell-based; conditions: HEK293 cells expressing canine TRPM8, icilin activation; for % I (0.5 μM): 0.5 μM compound; for IC50: eight-point dose-response; for % I (1 μM): 1 μM compound; for % I (5 μM): 5 μM compound; for inhibition at 0.5 µM: HEK293, read-out: % I (0.5 μM), 0.5 μM compound; for inhibition at 1 µM: HEK293, read-out: % I (1 μM), 1 μM compound
T1 construct: expressed in transfected cells
T1 sequence (Q1A7N1 1-1104): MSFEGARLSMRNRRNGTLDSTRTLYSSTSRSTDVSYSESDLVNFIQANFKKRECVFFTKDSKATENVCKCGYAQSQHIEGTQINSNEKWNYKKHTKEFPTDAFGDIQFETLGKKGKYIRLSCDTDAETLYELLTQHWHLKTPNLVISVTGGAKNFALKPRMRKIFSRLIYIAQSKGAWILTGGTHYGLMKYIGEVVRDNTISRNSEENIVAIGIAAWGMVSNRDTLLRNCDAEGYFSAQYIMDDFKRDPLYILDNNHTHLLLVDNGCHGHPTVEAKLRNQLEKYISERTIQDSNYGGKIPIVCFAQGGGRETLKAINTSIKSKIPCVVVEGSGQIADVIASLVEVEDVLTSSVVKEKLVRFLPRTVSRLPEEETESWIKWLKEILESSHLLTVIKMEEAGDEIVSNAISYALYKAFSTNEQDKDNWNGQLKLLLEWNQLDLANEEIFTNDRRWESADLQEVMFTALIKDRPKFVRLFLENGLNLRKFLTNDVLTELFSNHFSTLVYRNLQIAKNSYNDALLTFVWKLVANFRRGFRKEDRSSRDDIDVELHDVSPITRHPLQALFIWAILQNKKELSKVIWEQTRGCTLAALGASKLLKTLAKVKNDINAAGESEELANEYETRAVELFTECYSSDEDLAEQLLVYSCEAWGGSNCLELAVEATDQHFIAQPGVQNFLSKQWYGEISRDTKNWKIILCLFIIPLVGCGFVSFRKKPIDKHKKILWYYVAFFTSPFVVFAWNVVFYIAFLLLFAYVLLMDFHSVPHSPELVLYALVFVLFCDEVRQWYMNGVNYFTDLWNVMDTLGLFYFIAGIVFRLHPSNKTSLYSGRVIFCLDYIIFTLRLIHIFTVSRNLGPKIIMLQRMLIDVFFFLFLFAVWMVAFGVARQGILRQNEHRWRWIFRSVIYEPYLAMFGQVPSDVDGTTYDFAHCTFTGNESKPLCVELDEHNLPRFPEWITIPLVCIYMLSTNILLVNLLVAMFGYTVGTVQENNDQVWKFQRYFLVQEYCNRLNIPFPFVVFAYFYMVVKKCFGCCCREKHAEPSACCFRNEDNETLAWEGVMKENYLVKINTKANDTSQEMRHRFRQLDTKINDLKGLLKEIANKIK
Outline: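 Icilin challenge (final concentration producing ~80% of maximal response) followed a 5 min compound exposure in canine TRPM8-HEK293 cells dye-loaded with Calcium 3. Intracellular Ca2+ was read on FLIPR/FDSS. EC50 and IC50 values came from nonlinear sigmoidal dose-response fits of basal-subtracted, percent-of-maximum data averaged over quadruplicates.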

canine TRPM8 [2] = biological target: T1, canine TRPM8; test: TRPM8 patch clamp assay (whole-cell, HEK293 cells); format: cell-based; conditions: HEK293 cells stably transfected with canine TRPM8, 100 μM menthol, 22° C.
Protocol: For patch clamp experiments, HEK293 cells stably transfected with canine TRPM8 were cultured in DMEM supplemented with 10% fetal bovine serum, 100 units/ml penicillin, 100 μg/ml streptomycin and 1 mg/ml G418. Cells were maintained at 37° C. and in 5% CO2.
The extracellular solution contained (in mM): NaCl, 132; EGTA, 1; KCl, 5.4; MgCl2, 0.8; HEPES, 10; glucose, 10; pH=7.4. Recordings were performed using the conventional whole-cell patch clamp technique, 1-2 days after plating cells onto glass coverslips at densities appropriate for single cell recording. Currents were amplified by a patch clamp amplifier and filtered at 2 kHz (Axopatch 200B, Molecular Devices, Union City, Calif.). Menthol (100 μM) was applied to the cell at 0.5 ml/min via a gravity-fed perfusion system. Recordings involving menthol activation were performed at 22° C.
In experiments where temperatures were varied, temperature ramps were generated by cooling the perfusate in an in-line cooler (Model SC-20, Warner Instruments, Hamden, Conn.) controlled by a temperature controller (Model CL-100, Warner Instruments). The temperature in the vicinity of the recorded cell was measured with a custom-made miniature thermo-microprobe connected to a monitoring thermometer (Model TH-8, Physitemp, Clifton, N.J.), and sampled using Digidata 1322A and pClamp 9.0 (Molecular Devices), as were the currents concurrently measured in the whole-cell patch clamp mode. The current was continuously sampled (at 100 Hz) at a holding potential of −60 mV.
Compounds were diluted from 10 mM DMSO stocks (stored at −20° C.) into an extracellular solution either containing 100 μM menthol or subjecting to cooling. Increasing concentrations of a compound were applied to a cell in a cumulative manner and concentration-dependent responses were measured after steady-state activation was achieved by either 100 μM menthol or cooling to 10° C. A saturating concentration of a reference antagonist was applied at the end of an experiment (either in the presence of 100 μM menthol or 10° C. temperature) to establish the baseline from which all the other measurements were subtracted.
Percentage inhibition by a compound was calculated as follows: 100×(1−Icomp/I0); where Icomp and I0 are steady-state current amplitudes in either the presence or absence of a concentration of the compound.

Sprague-Dawley rats = test: CFA-induced paw radiant heat hypersensitivity; format: in vivo, rat; conditions: Rattus norvegicus, po, 1 h, read-out: % Reversal
Protocol: Intraplantar injection of Complete Freund's Adjuvant (CFA) in rodents results in a long-lasting inflammatory reaction, characterized by a pronounced hypersensitivity to both thermal and mechanical stimuli. This hypersensitivity peaks between 24-72 hours following injection and can last for several weeks. […] This paradigm also may be conducted with a multiple dosing or a prophylactic dosing regime designed to alter the course of hyperalgesia development. This test predicts the analgesic, anti-allodynic and antihyperalgesic effect of numerous effective clinical agents, including NSAIDS such as acetaminophen, aspirin and ibuprofen, and opioids such as morphine.
Each rat was placed in a test chamber on a warm glass surface and allowed to acclimate for approximately 10 minutes. A radiant thermal stimulus (beam of light) was then focused through the glass onto the plantar surface of each hind paw in turn. The thermal stimulus was automatically shut off by a photoelectric relay when the paw was moved or when the cut-off time was reached (20 seconds for radiant heat at ˜5 Amps). An initial (baseline) response latency to the thermal stimulus was recorded for each animal prior to the injection of CFA. Twenty-four hours following intraplantar CFA injection, the response latency of the animal to the thermal stimulus was then re-evaluated and compared to the animal's baseline response time. […] Immediately following the post-CFA latency assessment, test compound or vehicle (usually Solutol, hydroxypropyl methylcellulose, hydroxypropyl beta-cyclodextrin or PEG-400) was administered i.p. or p.o. to rats. […] The percent reversal (% R) of hypersenstivitiy was calculated according to the following formula:
% Reversal=(Treatment Response-CFA Response)/(Baseline Response-CFA Response)×100.

SMILES | % I (0.5 μM) (canine TRPM8 [1]) [%] | IC50 (canine TRPM8 [1]; read-out: IC50) [µM] | other results
CCOP(=O)(OCC)C(Cc1cc(C(F)(F)F)ccc1F)c1sc2ccccc2c1Cl (racemic) [Cpd 286] | 102 | 0.127 | 
CCOP(=O)(OCC)C(Cc1cc(C(F)(F)F)ccc1F)c1sc2ccccc2c1Br (racemic) [Cpd 146] | 103 | 0.1 | 
CCOP(=O)(OCC)C(Cc1ccccc1Cl)c1cc2ccccc2s1 (centres unmarked) [Cpd 85] |  | 0.48 | % I (1 μM) (canine TRPM8 [1]): 90%; % I (5 μM) (canine TRPM8 [1]): 100%
CCOP(=O)(OCC)C(Cc1ccc(OC)c(F)c1)c1sc2ccccc2c1Br (racemic) [Cpd 158] | 101 | 0.059 | 
CCOP(=O)(OCC)C(Cc1cc(OC)cc(OC)c1)c1sc2ccccc2c1Br (centres unmarked) [Cpd 319] | 103 | 0.026 | 
Cc1c(C(Cc2ccc(F)c(F)c2)P(=O)(OC(C)C)OC(C)C)oc2cccc(F)c12 (centres unmarked) [Cpd 202] |  | 0.053 | % I (1 μM) (canine TRPM8 [1]): 103%
CCOP(=O)(OCC)C(Cc1cc(C(F)(F)F)cc(Cl)c1F)c1sc2ccccc2c1C (centres unmarked) [Cpd 73] |  | 0.36 | % I (1 μM) (canine TRPM8 [1]): 100%
CCOP(=O)(OCC)C(Cc1ccc(OC(F)(F)F)cc1)c1sc2ccccc2c1Br (centres unmarked) [Cpd 155, [1-(3-Bromo-benzo[b]thiophen-2-yl)-2-(4-trifluoromethoxy-phenyl)-ethyl]-phosphonic acid diethyl ester] |  |  | inhibition at 0.5 µM (canine TRPM8 [1]): 104%; IC50 (canine TRPM8 [1]; IC50 (μM)): 0.046 µM and 0.12 µM and 0.09 µM; IC50 (canine TRPM8 [2]): 12.5 nM; inhibition in vivo at 30 mg/kg (Sprague-Dawley rats): 138%
CCOP(=O)(OCC)C(Cc1ccc(F)c(F)c1)c1sc2ccccc2c1-c1cccnc1F (centres unmarked) [Cpd 128, {2-(3,4-Difluoro-phenyl)-1-[3-(2-fluoro-pyridin-3-yl)-benzo[b]thiophen-2-yl]-ethyl}-phosphonic acid diethyl ester] |  |  | inhibition at 1 µM (canine TRPM8 [1]): 100%; IC50 (canine TRPM8 [1]; IC50 (μM)): 0.02 µM
CCOP(=O)(OCC)C(Cc1cccc(C(F)(F)F)c1)c1cc2ccccc2s1 (centres unmarked) [Cpd 39] |  | 0.141 | % I (1 μM) (canine TRPM8 [1]): 100%
CCOP(=O)(OCC)C(Cc1ccc(F)c(OC)c1)c1sc2ccccc2c1Br (centres unmarked) [Cpd 156] |  |  | inhibition at 0.5 µM (canine TRPM8 [1]): 103%; IC50 (canine TRPM8 [1]; IC50 (μM)): 0.015 µM and 0.032 µM
CCOP(=O)(OCC)C(Cc1cccc(C(F)(F)F)c1F)c1sc2ccccc2c1Br (centres unmarked) [Cpd 142] | 101 | 0.054 | 
COc1c(F)c(F)c(CC(c2sc3ccccc3c2Br)P(=O)(OC(C)C)OC(C)C)c(F)c1F (racemic) [Cpd 161] | 103 | 0.019 | 
CCOP(=O)(Cc1cc2ccccc2s1)OCc1ccccc1C (centres unmarked) [Cpd 104, Benzo[b]thiophen-2-ylmethyl-phosphonic acid ethyl ester 2-methyl-benzyl ester] |  |  | % I (5 μM) (canine TRPM8 [1]): 99%; inhibition at 1 µM (canine TRPM8 [1]): 53%; IC50 (canine TRPM8 [1]; IC50 (μM)): 0.96 µM
